Assays:
PDE4C1 = PDE4C1 (Homo sapiens (Human), UniProt Q08493); assay: PDE4 percent inhibition assay; type: biochemical; settings: for inhibition at 10 µM: read-out: PDE4 Isoform % Inhibition @ 10 μM PDE4C1
Experimental: (§1) PDE4 assay kit (BPS Bioscience, San Diego, CA), as described below.
(§2) • 1) Dilute 20 μM FAM-Cyclic-3′, 5′-AMP stock 100-fold with PDE buffer to make a 200 nM solution. Make only sufficient quantity needed for the assay; store remaining 20 μM stock solution in aliquots at −20° C. • 2) Add 25 μl of FAM-Cyclic-3′,5′-AMP (200 nM) to each well designated “Positive Control”, “Test Inhibitor”, and “Substrate Control”. • 3) Add 20 μl of PDE assay buffer to each well designated “Substrate Control” and 45 μl of PDE assay buffer to each well designated “Blank”. • 4) Add 5 μl of inhibitor solution to each well designated “Test Inhibitor”. For the wells labeled “Positive Control”, “Substrate Control” and “Blank”, add 5 μl of the same solution without inhibitor (inhibitor buffer). • 5) Thaw PDE on ice. Upon first thaw, briefly spin tube containing enzyme to recover the full contents of the tube. • 6) Dilute PDE4 in PDE buffer to 7.5 pg/μl (0.15 ng/reaction)*. Initiate reaction by adding 20 μl of PDE4 (7.5 pg/μl) to the wells designated “Positive Control” and “Test Inhibitor.” • 7) Incubate at room temperature for 1 hour.
(§3) • 1) Mix binding agent thoroughly and dilute binding agent 1:100 with binding agent diluent. • 2) Add 100 μl diluted binding agent to each microwell. Incubate at room temperature for 1 hour with slow shaking. • 3) Read the fluorescent polarization of the sample in a microtiter-plate reader equipped for the measurement of fluorescence polarization, capable of excitation at wavelengths ranging from 485±5 nm and detection of emitted light ranging from 528±10 nm. Blank value is subtracted from all other values.
(§4) 100 µM dilutions of the test compounds were prepared in assay buffer (10% DMSO concentration) and 5 μl of the dilution was added to a 50 μl reaction so that the final concentration of DMSO is 1% in all of reactions.
(§5) The enzymatic reactions were conducted at room temperature for 60 minutes in a 50 μl mixture containing PDE assay buffer, 100 nM FAM-cAMP, a PDE enzyme and the test compound.
(§6) After the enzymatic reaction, 100 Is of a binding solution (1:100 dilution of the binding agent with the binding agent diluent) was added to each reaction and the reaction was performed at room temperature for 60 minutes.
(§7) Fluorescence intensity was measured at an excitation of 485 nm and an emission of 528 nm using a Tecan Infinite M1000 microplate reader.

PDE4D2 = PDE4D2 (Homo sapiens (Human), UniProt Q08499); assay: PDE4 percent inhibition assay; type: biochemical; settings: for inhibition at 10 µM: read-out: PDE4 Isoform % Inhibition @ 10 μM PDE4D2
PDE4D2, sequence (Q08499 303-809, change not shown): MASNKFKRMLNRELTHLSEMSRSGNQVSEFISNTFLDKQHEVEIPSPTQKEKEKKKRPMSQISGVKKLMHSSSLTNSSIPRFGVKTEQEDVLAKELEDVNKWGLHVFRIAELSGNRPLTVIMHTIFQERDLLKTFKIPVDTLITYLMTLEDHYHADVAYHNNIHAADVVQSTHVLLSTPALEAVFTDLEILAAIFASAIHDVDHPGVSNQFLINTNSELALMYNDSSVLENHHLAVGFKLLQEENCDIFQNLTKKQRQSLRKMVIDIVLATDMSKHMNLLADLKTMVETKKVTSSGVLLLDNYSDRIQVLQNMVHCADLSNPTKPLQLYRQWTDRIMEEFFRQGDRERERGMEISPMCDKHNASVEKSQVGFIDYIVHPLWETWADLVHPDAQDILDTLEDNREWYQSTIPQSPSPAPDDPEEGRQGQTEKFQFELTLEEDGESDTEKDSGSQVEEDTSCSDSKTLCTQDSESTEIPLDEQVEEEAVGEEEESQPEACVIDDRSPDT
Experimental: as §1, §2, §3, §4, §5, §6, §7

PDE4A1A = PDE4A1A (Homo sapiens (Human), UniProt P27815); assay: PDE4 percent inhibition assay; type: biochemical; settings: for inhibition at 10 µM: read-out: PDE4 Isoform % Inhibition @ 10 μM PDE4A1A
PDE4A1A, sequence (P27815 other isoform, or with tags, fused parts or gaps): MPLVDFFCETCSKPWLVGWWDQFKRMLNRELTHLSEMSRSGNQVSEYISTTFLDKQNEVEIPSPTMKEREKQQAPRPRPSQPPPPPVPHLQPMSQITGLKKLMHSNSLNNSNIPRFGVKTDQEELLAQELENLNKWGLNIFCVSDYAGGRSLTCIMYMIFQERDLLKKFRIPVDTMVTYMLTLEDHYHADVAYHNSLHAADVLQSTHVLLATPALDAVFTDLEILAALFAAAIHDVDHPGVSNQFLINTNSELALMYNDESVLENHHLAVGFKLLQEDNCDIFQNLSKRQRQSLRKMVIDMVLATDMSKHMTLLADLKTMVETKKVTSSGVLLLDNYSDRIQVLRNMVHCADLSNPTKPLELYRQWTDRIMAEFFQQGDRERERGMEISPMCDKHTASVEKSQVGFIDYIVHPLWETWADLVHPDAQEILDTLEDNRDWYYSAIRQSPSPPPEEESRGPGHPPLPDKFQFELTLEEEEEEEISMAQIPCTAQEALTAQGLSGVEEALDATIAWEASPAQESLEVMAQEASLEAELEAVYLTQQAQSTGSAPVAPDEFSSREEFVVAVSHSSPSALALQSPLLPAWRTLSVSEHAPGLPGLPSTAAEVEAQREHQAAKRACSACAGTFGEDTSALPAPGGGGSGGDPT
Experimental: as §1, §2, §3, §4, §5, §6, §7

PDE4B2 = PDE4B2 (Homo sapiens (Human), UniProt Q07343); assay: PDE4 percent inhibition assay; type: biochemical; settings: for inhibition at 10 µM: read-out: PDE4 Isoform % Inhibition @ 10 μM PDE4B2
PDE4B2, sequence (Q07343 other isoform, or with tags, fused parts or gaps): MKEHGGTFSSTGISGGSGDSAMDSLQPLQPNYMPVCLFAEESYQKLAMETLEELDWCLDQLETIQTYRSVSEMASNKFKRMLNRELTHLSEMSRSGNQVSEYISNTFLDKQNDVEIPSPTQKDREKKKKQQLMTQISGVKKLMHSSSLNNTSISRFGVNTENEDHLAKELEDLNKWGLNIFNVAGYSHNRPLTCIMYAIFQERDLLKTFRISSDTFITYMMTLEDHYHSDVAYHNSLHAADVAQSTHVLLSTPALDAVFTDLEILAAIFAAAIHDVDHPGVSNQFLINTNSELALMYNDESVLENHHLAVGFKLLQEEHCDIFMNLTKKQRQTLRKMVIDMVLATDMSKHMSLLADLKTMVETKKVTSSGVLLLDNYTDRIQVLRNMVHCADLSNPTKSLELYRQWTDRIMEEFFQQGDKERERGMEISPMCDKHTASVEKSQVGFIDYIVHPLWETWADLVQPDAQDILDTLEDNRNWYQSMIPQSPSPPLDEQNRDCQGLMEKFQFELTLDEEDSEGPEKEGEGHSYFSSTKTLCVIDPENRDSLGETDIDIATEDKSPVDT
Experimental: as §1, §2, §3, §4, §5, §6, §7

SERT = SERT (Homo sapiens (Human), UniProt P31645); assay: SERT inhibition assay (Neurotransmitter Transporter Fluorescence assay); type: cell-based; settings: class symbols; legend in nM/micromolar
SERT, sequence (P31645 whole entry, species assumed): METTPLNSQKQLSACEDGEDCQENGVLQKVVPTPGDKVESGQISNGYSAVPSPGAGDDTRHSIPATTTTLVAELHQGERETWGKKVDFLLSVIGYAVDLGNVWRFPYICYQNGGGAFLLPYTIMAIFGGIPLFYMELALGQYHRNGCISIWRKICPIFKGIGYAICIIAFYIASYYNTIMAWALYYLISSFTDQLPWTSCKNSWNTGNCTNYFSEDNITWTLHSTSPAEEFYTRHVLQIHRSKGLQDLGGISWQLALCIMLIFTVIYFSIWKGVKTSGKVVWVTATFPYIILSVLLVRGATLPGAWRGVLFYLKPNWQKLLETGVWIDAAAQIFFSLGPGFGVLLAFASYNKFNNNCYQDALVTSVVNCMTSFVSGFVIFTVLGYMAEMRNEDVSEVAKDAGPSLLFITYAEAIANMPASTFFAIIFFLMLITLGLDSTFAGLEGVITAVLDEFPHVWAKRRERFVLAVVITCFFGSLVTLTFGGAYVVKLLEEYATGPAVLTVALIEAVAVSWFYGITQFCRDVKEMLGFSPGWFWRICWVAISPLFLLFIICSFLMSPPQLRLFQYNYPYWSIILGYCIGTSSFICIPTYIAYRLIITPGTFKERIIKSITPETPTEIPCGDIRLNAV
Experimental: SERT inhibition was measured using a Neruotransmitter Transportation Fluorescence assay. Briefly, stable 5HHH cells were prepared in a 384 microwell plate. Compounds were prepared by in assay buffer (20 mM HEPES, 0.1% BSA). The compounds were added to the plated cells and incubated for 30 minutes at 37° C. 25 μL of dye solution (Molecular Devices Neurotransmitter Transporter Uptake Assay Kit) was added per well and incubated for 30 minutes at 37° C. The plates were then read on a plate reader.

PDE4C1, sequence (Q08493 whole entry, canonical isoform): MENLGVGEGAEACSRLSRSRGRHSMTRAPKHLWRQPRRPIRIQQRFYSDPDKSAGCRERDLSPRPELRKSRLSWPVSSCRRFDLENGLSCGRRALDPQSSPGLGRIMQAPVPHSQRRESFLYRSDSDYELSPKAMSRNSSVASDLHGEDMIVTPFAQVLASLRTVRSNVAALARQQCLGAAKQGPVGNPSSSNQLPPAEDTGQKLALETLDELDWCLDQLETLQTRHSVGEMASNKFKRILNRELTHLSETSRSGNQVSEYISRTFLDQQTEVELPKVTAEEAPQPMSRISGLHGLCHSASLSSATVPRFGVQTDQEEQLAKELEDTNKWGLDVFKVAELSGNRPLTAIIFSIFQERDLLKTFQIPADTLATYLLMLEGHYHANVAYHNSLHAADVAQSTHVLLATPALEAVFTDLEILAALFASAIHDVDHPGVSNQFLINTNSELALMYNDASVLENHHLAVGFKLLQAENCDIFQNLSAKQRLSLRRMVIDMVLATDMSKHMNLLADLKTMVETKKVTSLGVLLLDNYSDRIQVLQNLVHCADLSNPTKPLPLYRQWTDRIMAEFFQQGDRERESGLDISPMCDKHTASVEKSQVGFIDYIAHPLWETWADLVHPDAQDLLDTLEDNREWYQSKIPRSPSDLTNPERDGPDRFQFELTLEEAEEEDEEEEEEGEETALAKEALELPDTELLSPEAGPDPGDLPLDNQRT

Row | SMILES | inhibition at 10 µM (PDE4C1) | inhibition at 10 µM (PDE4D2) | inhibition at 10 µM (PDE4A1A) | inhibition at 10 µM (PDE4B2) | IC50 (SERT) | PDE4 Isoform % Inhibition @ 10 μM PDE4C1 (PDE4C1) | PDE4 Isoform % Inhibition @ 10 μM PDE4D2 (PDE4D2) | PDE4 Isoform % Inhibition @ 10 μM PDE4A1A (PDE4A1A) | PDE4 Isoform % Inhibition @ 10 μM PDE4B2 (PDE4B2)
1 | COc1ccc([C@@]23CC[C@H](N4CCC4)C[C@@H]2N(C)CC3)cc1OC [Compound 104, (3aS,6S,7aS)-6-(azetidin-1-yl)-3a-(3,4-dimethoxyphenyl)-1-methyloctahydro-1H-indole] | < 30% | < 30% | < 30% | < 30% | 100 to 500 nM |  |  |  | 
2 | COc1ccc([C@@]23CC[C@H](n4cccn4)C[C@@H]2N(C)CC3)cc1OC [Compound 102, (3aS,6S,7aS)-3a-(3,4-dimethoxyphenyl)-1-methyl-6-(1H-pyrazol-1-yl)octahydro-1H-indole] | < 30% | < 30% | < 30% | < 30% | < 50 nM |  |  |  | 
3 | COc1ccc([C@@]23CCN(C)[C@@H]2CC(=O)[C@@H]2O[C@@H]23)cc1OC [Compound 210] |  |  |  |  | 100 to 500 nM | A (A if the % inhibition is greater than or equal to 70%) | A (A if the % inhibition is greater than or equal to 70%) | A (A if the % inhibition is greater than or equal to 70%) | A (A if the % inhibition is greater than or equal to 70%)
4 | COc1ccc([C@]23CCN(C)[C@H]2CC2(CCO2)CC3)cc1OC (stereo partly drawn) [Compound 118, (3aS,7aS)-3a-(3,4-dimethoxyphenyl)-1-methyloctahydrospiro[indole-6,2′-oxetane]] | 30 to 50% | 30 to 50% | 30 to 50% | < 30% | < 50 nM |  |  |  | 
5 | COc1ccc([C@@]23CC[C@H](N4CCOCC4)C[C@@H]2N(C)CC3)cc1OC [Compound 108, 4-((3aS,6S,7aS)-3a-(3,4-dimethoxyphenyl)-1-methyloctahydro-1H-indol-6-yl)morpholine] | < 30% | < 30% | < 30% | < 30% | 100 to 500 nM |  |  |  | 
6 | COc1ccc([C@]23CCN(C)[C@H]2[C@H]2CC[C@@H]3CC2=O)cc1OC [Compound 203] |  |  |  |  | 50 to 100 nM | C (C is the percent inhibition is 30-50%) | B (B if the percent inhibition is 50-70%) | D (D if the percent inhibition is less than 30%) | B (B if the percent inhibition is 50-70%)
7 | COc1ccc([C@@]23CCN(C)[C@H]2CC(=O)[C@@H]2O[C@@H]23)cc1OC (racemic) [Compound 208, rac-(1aR,3aS,6aS,6bR)-6a-(3,4-dimethoxyphenyl)-4-methyloctahydro-2H-oxireno[2,3-e]indol-2-one] | ≥ 70% | ≥ 70% | ≥ 70% | ≥ 70% | 50 to 100 nM |  |  |  | 
8 | COc1ccc([C@]23CCN(C)[C@H]2CC(=O)[C@H]2O[C@H]23)cc1OC [Compound 209] |  |  |  |  | < 50 nM | A (A if the % inhibition is greater than or equal to 70%) | A (A if the % inhibition is greater than or equal to 70%) | A (A if the % inhibition is greater than or equal to 70%) | A (A if the % inhibition is greater than or equal to 70%)
9 | COc1ccc([C@@]23CC[C@@H](n4ccc(C(F)(F)F)n4)C[C@@H]2N(C)CC3)cc1OC [Compound 115, (3aS,6R,7aS)-3a-(3,4-dimethoxyphenyl)-1-methyl-6-(3-(trifluoromethyl)-1H-pyrazol-1-yl)octahydro-1H-indole] | < 30% | < 30% | < 30% | < 30% | < 50 nM |  |  |  | 
10 | COc1ccc([C@@]23CCC(=O)C[C@@H]2N(C(C)C)CC3)cc1OC [Compound 226] |  |  |  |  | 500 to 1000 nM |  |  |  | 
11 | COc1ccc([C@@]23CC[C@@H](N4CCC4)C[C@@H]2N(C)CC3)cc1OC [Compound 116, (3aS,6R,7aS)-6-(azetidin-1-yl)-3a-(3,4-dimethoxyphenyl)-1-methyloctahydro-1H-indole] | < 30% | < 30% | < 30% | < 30% | 500 to 1000 nM |  |  |  | 
12 | COc1ccc([C@]23CCN(C)[C@H]2[C@@H]2C[C@H]3CC2=O)cc1OC [Compound 213] |  |  |  |  | > 1000 nM | A (A if the % inhibition is greater than or equal to 70%) | A (A if the % inhibition is greater than or equal to 70%) | A (A if the % inhibition is greater than or equal to 70%) | A (A if the % inhibition is greater than or equal to 70%)
13 | COc1ccc([C@@]23CC[C@H](N4CCCC4=O)C[C@@H]2N(C)CC3)cc1OC [Compound 111, 1-((3aS,6S,7aS)-3a-(3,4-dimethoxyphenyl)-1-methyloctahydro-1H-indol-6-yl)pyrrolidin-2-one] | < 30% | < 30% | < 30% | < 30% | < 50 nM |  |  |  | 
14 | COc1ccc([C@]23CCN(C)[C@H]2CC(=O)C[C@H]3c2ccccc2)cc1OC [Compound 207] |  |  |  |  | > 1000 nM | B (B if the percent inhibition is 50-70%) | B (B if the percent inhibition is 50-70%) | B (B if the percent inhibition is 50-70%) | B (B if the percent inhibition is 50-70%)
15 | COc1ccc([C@]23CCN(C)[C@H]2CC(=O)C=C3c2ccccc2)cc1OC (racemic) [Compound 201, rac-(3aS,7aS)-3a-(3,4-dimethoxyphenyl)-1-methyl-4-phenyl-1,2,3,3a,7,7a-hexahydro-6H-indol-6-one] | 30 to 50% | ≥ 70% | ≥ 70% | ≥ 70% | > 1000 nM |  |  |  | 
16 | COc1ccc([C@]23CC[C@@H](n4ccc(C(F)(F)F)n4)C[C@H]2N(C)CC3)cc1OC [Compound 121] |  |  |  |  | 100 to 500 nM | D (D if the percent inhibition is less than 30%) | B (B if the percent inhibition is 50-70%) | D (D if the percent inhibition is less than 30%) | B (B if the percent inhibition is 50-70%)
17 | COc1ccc([C@]23CCN(C)[C@H]2[C@@H]2CCC[C@H]3CC2=O)cc1OC [Compound 218] |  |  |  |  | < 50 nM | D (D if the percent inhibition is less than 30%) | D (D if the percent inhibition is less than 30%) | D (D if the percent inhibition is less than 30%) | D (D if the percent inhibition is less than 30%)
18 | CCN1CC[C@]2(c3ccc(OC)c(OC)c3)CCC(=O)C[C@H]12 [Compound 223] |  |  |  |  | > 1000 nM |  |  |  | 
19 | CCN1CC[C@@]2(c3ccc(OC)c(OC)c3)CCC(=O)C[C@@H]12 [Compound 224] |  |  |  |  | < 50 nM |  |  |  | 
20 | COc1ccc([C@]23CCC(=O)C[C@H]2N(C(C)C)CC3)cc1OC [Compound 227] |  |  |  |  | 500 to 1000 nM |  |  |  | 
21 | COc1ccc([C@@]23CC[C@H](n4ccc(C(F)(F)F)n4)C[C@@H]2N(C)CC3)cc1OC [Compound 101, (3aS,6S,7aS)-3a-(3,4-dimethoxyphenyl)-1-methyl-6-(3-(trifluoromethyl)-1H-pyrazol-1-yl)octahydro-1H-indole] | < 30% | < 30% | < 30% | < 30% |  |  |  |  | 

From patent publication US20250059156A1, “THERAPEUTIC ALKALOID COMPOUNDS” (Sensorium Therapeutics, Inc., priority 2022, published 2025)
